Data on 5 molecules can be found in patent US9499492B2, “4-(ortho)-fluorophenyl-5-fluoropyrimidin-2-yl amines containing a sulfoximine group” (BAYER PHARMA AKTIENGESELLSCHAFT, priority 2012, dated 2016).

Data set [1] relates to A2780, human ovarian carcinoma cells. Put plainly: Proliferation assay, A2780 (Method 3). The conditions noted are these: A2780, 4 days, crystal violet, read-out: Inhibition of A2780 cell proliferation IC50. The format is cell-based. How it is done:
(§1) After 24 hours, the cells of one plate (zero-point plate) were stained with crystal violet (see below), while the medium of the other plates was replaced by fresh culture medium (200 μl), to which the test substances were added in various concentrations (0 μM, as well as in the range of 0.001-10 μM; the final concentration of the solvent dimethyl sulfoxide was 0.5%). The cells were incubated for 4 days in the presence of test substances. Cell proliferation was determined by staining the cells with crystal violet: the cells were fixed by adding 20 μl/measuring point of an 11% glutaric aldehyde solution for 15 minutes at room temperature. After three washing cycles of the fixed cells with water, the plates were dried at room temperature. The cells were stained by adding 100 μl/measuring point of a 0.1% crystal violet solution (pH 3.0). After three washing cycles of the stained cells with water, the plates were dried at room temperature. The dye was dissolved by adding 100 μl/measuring point of a 10% acetic acid solution. The extinction was determined by photometry at a wavelength of 595 nm. The change of cell number, in percent, was calculated by normalization of the measured values to the extinction values of the zero-point plate (=0%) and the extinction of the untreated (0 μm) cells (=100%).

Data set [2] has as its system MOLM-13 human acute myeloid leukemia cells. Nature of the data set: Proliferation assay, MOLM-13 (Cell Titre-Glo, Method 3). In kind it is cell-based. The conditions noted are these: MOLM-13, 72-hour exposure, read-out: Inhibition of MOLM-13 cell proliferation IC50. How it is done:
Non-adherent MOLM-13 human acute myeloid leukemia cells (DSMZ ACC 554) were seeded at a density of 5,000 cells/well in a 96-well multititer plate in 100 μL of growth medium supplemented 10% fetal calf serum. After 24 hours, cell viability of one plate (zero-point plate) was determined with the Cell Titre-Glo Luminescent Cell Viability Assay (Promega), while 50 μL of test compound containing medium was added to the wells of the other plates (final concentrations in the range of 0.001-10 μM and DMSO controls; the final concentration of the solvent dimethyl sulfoxide was 0.5%). Cell viability was assessed after 72-hour exposure with the Cell Titre-Glo Luminescent Cell Viability Assay (Promega).

Data set [3] addresses T1, CDK9/CycT1 (Homo sapiens (Human), UniProt P50750). Nature of the data set: CDK9/CycT1 kinase assay (Method 1a). The conditions noted are these: for IC50: 10 μM ATP; for Selectivity CDK9/CDK2: derived from Methods 1a. and 2. The format is biochemical. An excerpt: 1a. CDK9/CycT1 Kinase Assay:
CDK9/CycT1-inhibitory activity of compounds of the present invention was quantified employing the CDK9/CycT1 TR-FRET assay as described in the following paragraphs:
Recombinant full-length His-tagged human CDK9 and CycT1, expressed in insect cells and purified by Ni-NTA affinity chromatography, were purchased from Invitrogen (Cat. No PV4131). As substrate for the kinase reaction biotinylated peptide biotin-Ttds-[…] (C-terminus in amid form) was used which can be purchased e.g. form the company JERINI Peptide Technologies (Berlin, Germany).
(§2) For the assay 50 nl of a 100 fold concentrated solution of the test compound in DMSO was pipetted into a black low volume 384 well microtiter plate (Greiner Bio-One, Frickenhausen, Germany), 2 μl of a solution of CDK9/CycT1 in aqueous assay buffer [50 mM Tris/HCl pH 8.0, 10 mM MgCl2, 1.0 mM dithiothreitol, 0.1 mM sodium ortho-vanadate, 0.01% (v/v) Nonidet-P40 (Sigma)] were added and the mixture was incubated for 15 min at 22° C. to allow pre-binding of the test compounds to the enzyme before the start of the kinase reaction. […] The concentration of CDK9/CycT1 was adjusted depending of the activity of the enzyme lot and was chosen appropriate to have the assay in the linear range, typical concentrations were in the range of 1 μg/ml.
(§3) The resulting mixture was incubated 1 h at 22° C. to allow the formation of complex between the phosphorylated biotinylated peptide and the detection reagents. Subsequently the amount of phosphorylated substrate was evaluated by measurement of the resonance energy transfer from the Eu-chelate to the streptavidine-XL. Therefore, the fluorescence emissions at 620 nm and 665 nm after excitation at 350 nm was measured in a HTRF reader, e.g. a Rubystar (BMG Labtechnologies, Offenburg, Germany) or a Viewlux (Perkin-Elmer). The ratio of the emissions at 665 nm and at 622 nm was taken as the measure for the amount of phosphorylated substrate.

Data set [4] has as its target T1, CDK9/CycT1. Put plainly: CDK9/CycT1 high ATP kinase assay (Method 1b). As to conditions: 2 mM ATP. The format is biochemical. On the procedure:
1b. CDK9/CycT1 High ATP Kinase Assay
CDK9/CycT1-inhibitory activity of compounds of the present invention at a high ATP concentration after preincubation of enzyme and test compounds was quantified employing the CDK9/CycT1 TR-FRET assay as described in the following paragraphs.
Recombinant full-length His-tagged human CDK9 and CycT1, expressed in insect cells and purified by Ni-NTA affinity chromatography, were purchase from Invitrogen (Cat. No PV4131). As substrate for the kinase reaction biotinylated peptide biotin-Ttds-[…] (C-terminus in amid form) was used which can be purchased e.g. form the company JERINI peptide technologies (Berlin, Germany).
as §2, with “of 0.5” for “of 1”
as §3

Data set [5] deals with HeLa, human cervical tumour cells. Put plainly: Proliferation assay, HeLa (Method 3). The format is cell-based. As to conditions: 4 days, crystal violet, read-out: Inhibition of HeLa cell proliferation IC50. On the procedure:
as §1

The next data set addresses CDK2/CycE (Homo sapiens (Human), UniProt P24941). Nature of the data set: CDK2/CycE kinase assay (Method 2). The conditions noted are these: 10 μM ATP. In kind it is biochemical.
From the text: 2. CDK2/CycE Kinase Assay:
CDK2/CycE-inhibitory activity of compounds of the present invention was quantified employing the CDK2/CycE TR-FRET assay as described in the following paragraphs:
Recombinant fusion proteins of GST and human CDK2 and of GST and human CycE, expressed in insect cells (Sf9) and purified by Glutathion-Sepharose affinity chromatography, were purchased from ProQinase GmbH (Freiburg, Germany). As substrate for the kinase reaction biotinylated peptide biotin-Ttds-[…] (C-terminus in amid form) was used which can be purchased e.g. form the company JERINI Peptide Technologies (Berlin, Germany).
as §2, with “CDK2/CycE” for “CDK9/CycT1”, “130 ng/ml.” for “1 μg/ml.”
as §3, with “TR-FRET” for “HTRF”

A short description of data set [6]: In vitro metabolic stability in rat hepatocytes (Method 5). The format is in vitro ADME, Han Wistar rat. As to conditions: 1 μM test compound. On the procedure: 5. Investigation of In Vitro Metabolic Stability in Rat Hepatocytes
Hepatocytes from Han Wistar rats were isolated via a 2-step perfusion method. After perfusion, the liver was carefully removed from the rat: the liver capsule was opened and the hepatocytes were gently shaken out into a Petri dish with ice-cold Williams medium E (purchased from Sigma Aldrich Life Science, St Louis, Mo.). The resulting cell suspension was filtered through sterile gaze in 50 ml falcon tubes and centrifuged at 50×g for 3 min at room temperature. The cell pellet was resuspended in 30 ml WME and centrifuged through a Percoll® gradient for 2 times at 100×g. The hepatocytes were washed again with Williams' medium E (WMA) and resuspended in medium containing 5% Fetal calf serum (FCS, purchased from Invitrogen, Auckland, NZ). Cell viability was determined by trypan blue exclusion.
For the metabolic stability assay liver cells were distributed in WME containing 5% FCS to glass vials at a density of 1.0×10^6 vital cells/ml. The test compound was added to a final concentration of 1 μM. During incubation, the hepatocyte suspensions were continuously shaken and aliquots were taken at 2, 8, 16, 30, 45 and 90 min, to which equal volumes of cold acetonitrile were immediately added. Samples were frozen at −20° C. over night, after subsequently centrifuged for 15 minutes at 3000 rpm and the supernatant was analyzed with an Agilent 1200 HPLC-system with LCMS/MS detection.
The half-life of a test compound was determined from the concentration-time plot. From the half-life the intrinsic clearances were calculated. Together with the additional parameters liver blood flow, amount of liver cells in vivo and in vitro.

Each structure is given as a SMILES string. Read-outs that look alike come from different tables or passages of the source.

T1 sequence (P50750 whole entry): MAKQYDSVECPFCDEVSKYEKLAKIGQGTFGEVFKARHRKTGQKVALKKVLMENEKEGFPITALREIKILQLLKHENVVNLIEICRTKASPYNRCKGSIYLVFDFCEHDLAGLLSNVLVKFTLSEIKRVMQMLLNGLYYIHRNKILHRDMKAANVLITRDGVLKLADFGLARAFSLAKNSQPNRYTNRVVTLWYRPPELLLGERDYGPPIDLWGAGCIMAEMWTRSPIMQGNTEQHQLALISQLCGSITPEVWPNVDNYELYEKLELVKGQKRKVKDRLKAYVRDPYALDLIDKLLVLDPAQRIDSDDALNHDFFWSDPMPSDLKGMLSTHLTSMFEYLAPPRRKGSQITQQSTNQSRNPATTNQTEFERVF
T1 sequence (O60563 whole entry partner): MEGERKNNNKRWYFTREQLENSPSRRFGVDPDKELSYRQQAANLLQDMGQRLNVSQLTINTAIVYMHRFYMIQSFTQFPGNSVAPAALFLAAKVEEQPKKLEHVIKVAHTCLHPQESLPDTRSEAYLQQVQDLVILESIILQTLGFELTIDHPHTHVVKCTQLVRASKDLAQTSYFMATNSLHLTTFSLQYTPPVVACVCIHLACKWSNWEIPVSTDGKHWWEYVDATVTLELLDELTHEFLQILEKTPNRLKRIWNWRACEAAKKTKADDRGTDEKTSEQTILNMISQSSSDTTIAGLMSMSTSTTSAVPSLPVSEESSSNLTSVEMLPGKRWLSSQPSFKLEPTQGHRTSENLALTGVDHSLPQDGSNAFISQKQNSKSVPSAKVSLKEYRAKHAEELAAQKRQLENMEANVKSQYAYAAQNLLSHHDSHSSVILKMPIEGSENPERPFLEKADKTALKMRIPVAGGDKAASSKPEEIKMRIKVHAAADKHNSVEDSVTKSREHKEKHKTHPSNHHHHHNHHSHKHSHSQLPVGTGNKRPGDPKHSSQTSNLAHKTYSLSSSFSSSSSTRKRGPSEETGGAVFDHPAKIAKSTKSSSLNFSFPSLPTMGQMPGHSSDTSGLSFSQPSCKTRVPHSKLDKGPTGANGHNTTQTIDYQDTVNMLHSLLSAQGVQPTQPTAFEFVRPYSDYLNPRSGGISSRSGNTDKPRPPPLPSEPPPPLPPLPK

For `CS(=N)(=O)Cc1cc(Br)cc(Nc2ncc(F)c(-c3ccc(F)cc3F)n2)c1` (single isomer, unassigned) [Example 42, N-{3-Bromo-5-[(S-methylsulfonimidoyl)methyl]phenyl}-4-(2,4-difluorophenyl)-5-fluoropyrimidin-2-amine], the IC50 in data set [1] (Homo sapiens, A2780, 96 h) amounted to 1 µM; in data set [2] (Homo sapiens, MOLM-13, 72 h) it was 0.946 µM; against CDK9/CycT1 [3], 0.015 µM; against CDK9/CycT1 [4], 0.334 µM; in data set [5] (Homo sapiens, 96 h) it was 1.06 µM; at CDK2/CycE, 0.47 µM. In addition, the “Selectivity CDK9/CDK2” value at CDK9/CycT1 [3] stood at 30.
On to `CS(=O)(Cc1cc(Nc2ncc(F)c(-c3ccc(F)cc3F)n2)cc(S(F)(F)(F)(F)F)c1)=NC#N` (single isomer, unassigned) [Example 29, {[3-{[4-(2,4-Difluorophenyl)-5-fluoropyrimidin-2-yl]amino}-5-(pentafluoro-λ^6-sulfanyl)benzyl](methyl)oxido-λ^6-sulfanylidene}cyanamide], for which the IC50 came out at 0.096 µM in data set [1] (Homo sapiens, A2780, 96 h); 0.092 µM in data set [2] (Homo sapiens, MOLM-13, 72 h); 0.005 µM at CDK9/CycT1 [3]; 0.008 µM at CDK9/CycT1 [4]; 0.178 µM in data set [5]; 0.94 µM against CDK2/CycE. For the same molecule, at CDK9/CycT1 [3], the “Selectivity CDK9/CDK2” value is listed as 198.
Regarding `CS(=O)(Cc1cc(Nc2ncc(F)c(-c3ccc(F)cc3F)n2)cc(S(F)(F)(F)(F)F)c1)=NC#N` (single isomer, unassigned) [Example 30, {[3-{[4-(2,4-Difluorophenyl)-5-fluoropyrimidin-2-yl]amino}-5-(pentafluoro-λ^6-sulfanyl)benzyl](methyl)oxido-λ^6-sulfanylidene}cyanamide], the IC50 is 0.167 µM in data set [1]; 0.141 µM in data set [2]; 0.004 µM on CDK9/CycT1 [3]; 0.009 µM on CDK9/CycT1 [4]; 0.359 µM in data set [5]; 1.5 µM against CDK2/CycE. Also, the “Selectivity CDK9/CDK2” value at CDK9/CycT1 [3] was determined as 360.
As to `CS(=O)(Cc1cc(Cl)cc(Nc2ncc(F)c(-c3ccc(F)cc3F)n2)c1)=NC#N` (racemic) [Example 14, (rac)-[(3-Chloro-5-{[4-(2,4-difluorophenyl)-5-fluoropyrimidin-2-yl]amino}benzyl)(methyl)oxido-λ^6-sulfanylidene]cyanamide], in data set [6], the “maximal calculated oral bioavailability (Fmax) based on stability data in rat Hepatocytes” value is reported as 75%. For the same molecule, the IC50 worked out at 0.54 µM in data set [1] (Homo sapiens, A2780, 96 h); 1.02 µM in data set [5] (Homo sapiens, 96 h); 0.53 µM against CDK2/CycE.
`CS(=O)(Cc1cc(Nc2ncc(F)c(-c3ccc(F)cc3F)n2)cc(C(F)(F)F)c1)=NC(N)=O` (single isomer, unassigned) [Example 24, 1-{[3-{[4-(2,4-Difluorophenyl)-5-fluoropyrimidin-2-yl]amino}-5-(trifluoromethyl)benzyl](methyl)oxido-λ^6-sulfanylidene}urea]: the “maximal calculated oral bioavailability (Fmax) based on stability data in rat Hepatocytes” value in data set [6] is 82%. Also, the IC50 amounted to 0.32 µM in data set [1]; 0.01 µM at CDK9/CycT1 [3]; 0.199 µM against CDK9/CycT1 [4]; 0.91 µM in data set [5]; 0.67 µM against CDK2/CycE. In addition, the “Selectivity CDK9/CDK2” value on CDK9/CycT1 [3] is 66.
